# Structures can show the parent of a compound that is named as a salt. Where two headings read alike, the source gives them in different places.
# Columns and labels:
# [1] = system: male SPRD rats; assay: Elevated plus-maze test; assay type: in vivo, rat; conditions: for minimal effective dose: Rattus norvegicus, po, 1 h, read-out: Minimum effective dose
# Protocol: 1. Elevated Plus-Maze Test
# The tests were carried out on male SPRD rats weighing 220 to 260 g. Each group of animal consisted of 8 to 10 pieces of rat. The substance to be examined or the vehicle (i.e. distilled water or a 0.4% solution of methylcellulose) was administered to the animals in a volume of 5 ml/kg as a solution or suspension per os 60 minutes prior to the test.
# The elevated plus-maze consists of two open and two 40 cm wall enclosed arms of the same size (50×15 cm) arranged in the shape of a cross. The arms of the same type are opposite to each other. The junction of the four arms forms a central square area (15×15 cm). The apparatus is made of a wooden material elevated to a height of 50 cm and illuminated by a dim light from above. The essence of the method is that during the exploration of the apparatus, the animals spend considerably more time in the closed arms than in the open arms due to the natural fear from open space and height. […] Methods., 14, 149-167 (1985)].
# [2] = system: male NMRI mice; assay: Determination of the spontaneous motor activity; conditions: p.o., 60 minutes prior to the test, dose producing 50% of inhibition of motor activity
# Protocol: 2. Determination of the Spontaneous Motor Activity
# For the experiments, male NMRI mice weighing 20 to 25 g were used. Each treatment group consisted of 10 mice. The substance to be examined or the vehicle (i.e. a 0.4% solution of methylcellulose) was administered to the animals in a volume of 20 ml/kg as a suspension per os 60 minutes prior to the test. […] In case of anxiolytics, the value of the anxiolytic effect depends on the presence or absence of the sedative action (the latter is […]). For the experiments, an apparatus “digital motimeter” having 10 measuring places was used. The motion of the animals was indicated by the interruption of three parallel beams of infrared light at each measuring place, and the interruptions were recorded by the apparatus. The activity of one animal was determined at each measuring place. […] Int.
# [3] = p.o., 60 minutes prior to the test, male SPRD rats, time spent in and entries into open arms
Compound,ID50 [2] [mg/kg],melting point [°C],"minimal effective dose [1, 3] [mg/kg]",also measured
"COc1ccccc1Cc1c(N)nc(SCCN2CCNCC2)nc1N [1 (besylate), 4,6-Diamino-5-(2-methoxybenzyl)-2-[2-(1-piperazinyl)ethylthio]-pyrimidine]",>90,–,–,"Minimum effective dose [1, 3]: 1 mg/kg"
"4,6-Diamino-2-[4-(4-methyl-1-piperazinyl)ethylthio]-5-(2-ethoxybenzyl)pyrimidine trihydrochloride hydrate [Example 13]",–,–,–,"Minimum effective dose [1, 3]: 1 mg/kg"
"4,6-Diamino-2-[2-(4-methyl-1-piperazinyl)propylthio]-5-(2-methoxybenzyl)pyrimidine trihydrochloride hydrate [Example 4]",32.8,–,–,"Minimum effective dose [1, 3]: 1 mg/kg"
"4,6-Diamino-5-(2-methoxybenzyl)-2-[2-(1-piperazinyl)ethylthio]-pyrimidine fumarate [Example 2]",>100,–,–,"Minimum effective dose [1, 3]: 1 mg/kg"
"COc1ccccc1Cc1c(N)nc(SCCCCN2CCN(C)CC2)nc1N (as salt: hydrochloride) (hydrate or solvate) [Example 8, 4,6-Diamino-2-[4-(4-methyl-1-piperazinyl)butylthio]-5-(2-methoxybenzyl)pyrimidine trihydrochloride hydrate]",–,202,–,–
"COc1ccccc1Cc1c(N)nc(SCCN2CCNCC2)nc1N [Example 1 (fumarate), 4,6-Diamino-5-(2-methoxybenzyl)-2-[2-(1-piperazinyl)ethylthio]-pyrimidine]",>100,–,–,"Minimum effective dose [1, 3]: 3 mg/kg"
"COc1ccccc1Cc1c(N)nc(SCCCN2CCN(C=O)CC2)nc1N [Example 9, 4,6-Diamino-2-[3-(4-formyl-1-piperazinyl)propylthio]-5-(2-methoxybenzyl)pyrimidine]",–,174 to 176,3,–
"Nc1nc(SCCN2CCNCC2)nc(N)c1Cc1ccc(F)cc1 (as salt: hydrochloride) (hydrate or solvate) [Example 19, 4,6-Diamino-2-[2-(1-piperazinyl)ethylthio]-5-(4-fluorobenzyl)-pyrimidine trihydrochloride hydrate]",–,168 to 170,–,–
"COc1ccccc1Cc1c(N)nc(SCCN2CCN(C(C)C)CC2)nc1N [Example 5, 4,6-Diamino-2-[2-(4-isopropyl-1-piperazinyl)ethylthio]-5-(2-methoxybenzyl)pyrimidine trihydrochloride hydrate]",>100,–,3,–
"Nc1nc(SCCCN2CCNCC2)nc(N)c1Cc1ccc(Cl)cc1 [Example 17, 4,6-Diamino-2-[3-(1-piperazinyl)propylthio]-5-(4-chlorobenzyl)-pyrimidine trihydrochloride trihydrate]",>100,–,1,–
"CN1C(=O)CN=C(c2ccccc2)c2cc(Cl)ccc21 [diazepam, 7-chloro-1,3-dihydro-1-methyl-5-phenyl-2H-1,4-benzodiazepine-2-one, reference compound]",–,–,–,minimal effective dose [1]: 1 mg/kg
"COc1ccccc1Cc1c(N)nc(SCCCN2CCNCC2)nc1N [Example 10, 4,6-Diamino-2-[3-(1-piperazinyl)propylthio]-5-(2-methoxy-benzyl)pyrimidine trihydrochloride]",–,–,1,–
"CC(C)c1ccc(Cc2c(N)nc(SCCN3CCNCC3)nc2N)cc1 [Example 25, 4,6-Diamino-2-[2-(1-piperazinyl)ethylthio]-5-(4-isopropylbenzyl)-pyrimidine]",–,63 to 64,–,–
"CCOc1ccccc1Cc1c(N)nc(SCCCN2CCN(C=O)CC2)nc1N [Example 7, 4,6-Diamino-2-[3-(4-formyl-1-piperazinyi)propylthio]-5-(2-ethoxybenzyl)pyrimidine]",>100,–,–,"Minimum effective dose [1, 3]: <1 mg/kg"
"COc1ccccc1Cc1c(N)nc(SCCCCN2CCNCC2)nc1N (as salt: hydrochloride) [Example 18, 4,6-Diamino-2-[4-(1-piperazinyl)butylthio]-5-(2-methoxybenzyl)-pyrimidine trihydrochloride]",–,255,–,–
"COc1ccccc1Cc1c(N)nc(SCCCCN2CCNCC2)nc1N [Example 18, 4,6-Diamino-2-[4-(1-piperazinyl)butylthio]-5-(2-methoxybenzyl)-pyrimidine trihydrochloride]",>100,–,1,–
"COc1ccccc1Cc1c(N)nc(SCCCCN2CCN(C)CC2)nc1N [Example 8, 4,6-Diamino-2-[4-(4-methyl-1-piperazinyl)butylthio]-5-(2-methoxybenzyl)pyrimidine trihydrochloride hydrate]",>100,–,3,–
"Nc1nc(SCCCN2CCNCC2)nc(N)c1Cc1ccc(Cl)cc1 (as salt: hydrochloride) (hydrate or solvate) [Example 17, 4,6-Diamino-2-[3-(1-piperazinyl)propylthio]-5-(4-chlorobenzyl)-pyrimidine trihydrochloride trihydrate]",–,187,–,–
"COc1ccccc1Cc1c(N)nc(SCCN2CCN(CCCN(C)C)CC2)nc1N (as salt: hydrochloride) (hydrate or solvate) [Example 26, 4,6-Diamino-2-{2-[4-(3-dimethylaminopropyl)-1-piperazinyl]-ethylthio}-5-(2-methoxybenzyl)pyrimidine tetrahydrochloride hydrate]",–,262 to 264,–,–
"COc1ccccc1Cc1c(N)nc(SCCCN2CCNCC2)nc1N (as salt: hydrochloride) [Example 10, 4,6-Diamino-2-[3-(1-piperazinyl)propylthio]-5-(2-methoxy-benzyl)pyrimidine trihydrochloride]",–,197 to 198,–,–
"Nc1nc(SCCN2CCNCC2)nc(N)c1Cc1ccc(F)cc1 [Example 19, 4,6-Diamino-2-[2-(1-piperazinyl)ethylthio]-5-(4-fluorobenzyl)-pyrimidine trihydrochloride hydrate]",>100,–,0.01,–
"COc1ccccc1Cc1c(N)nc(SCCN2CCN(C(C)C)CC2)nc1N (as salt: hydrochloride) (hydrate or solvate) [Example 5, 4,6-Diamino-2-[2-(4-isopropyl-1-piperazinyl)ethylthio]-5-(2-methoxybenzyl)pyrimidine trihydrochloride hydrate]",–,253 to 255,–,–
"4,6-Diamino-2-[2-/4-(2-dimethylaminoethyl)-1-piperazinyl/-ethyl-thio]-5-(2-methoxybenzyl)pyrimidine tetrahydrochloride dihydrate [Example 6]",>100,–,–,"Minimum effective dose [1, 3]: 0.03 mg/kg"
"COc1ccccc1Cc1c(N)nc(SCCCN2CCN(C(C)=O)CC2)nc1N [Example 12, 4,6-Diamino-2-[3-(4-acetyl-1-piperazinyl)propylthio]-5-(2-methoxybenzyl)pyrimidine]",–,208 to 209,1,–
"COc1ccccc1Cc1c(N)nc(SCCN2CCN(C(C)=O)CC2)nc1N [Example 16, 4,6-Diamino-2-[2-(4-acetyl-1-piperazinyl)ethylthio]-5-(2-methoxybenzyl)pyrimidine]",>100,198.5 to 199.5,3,–
"COc1ccccc1Cc1c(N)nc(SCCN2CCN(CCCN(C)C)CC2)nc1N [Example 26, 4,6-Diamino-2-{2-[4-(3-dimethylaminopropyl)-1-piperazinyl]-ethylthio}-5-(2-methoxybenzyl)pyrimidine tetrahydrochloride hydrate]",>100,–,0.3,–
"4,6-Diamino-2-[3-(1-piperazinyl)ethylthio]-5-(2-ethoxybenzyl)-pyrimidine trihydrochloride trihydrate [Example 14]",–,–,–,"Minimum effective dose [1, 3]: 1 mg/kg"

# Reference: patent publication US6469168B1, “Piperazinylalkylthiopyrimidine derivatives, pharmaceutical compositions containing the same, and a process for the preparation of the active substance” (EGIS Gyógyszergyár Rt., priority 1999, dated 2002)
